# In US11414436B2, “Non-coordinating anion type activators containing cation having large alkyl groups” (ExxonMobil Chemical Patents Inc., priority 2018, dated 2022):
# Several values for one entry are separate records, joined by “and”; a condition that tells them apart may be missing. Equal values may be shown once.
# How the values were obtained:
# [1] = Solubility studies of the activators (saturated solution in isohexane or methylcyclohexane); assay type: physicochemical; settings: for Solubility limit in i-hexane (mM at 25° C.) / Solubility limit in i-hexane (wt % at 25° C.): isohexane; for Solubility limit in MeCy (mM at 25° C.): methylcyclohexane
# Method: Solubility Studies of the Activators
# Procedure for Solid Activators.
# A saturated solution of each of the solid ammonium borate activators was prepared by stirring an excess of the activator with either isohexane or methylcyclohexane solvent for several hours at 25° C. The mixture was then filtered and a known volume of the filtrate was evaporated to dryness in a tared vial. The vial was then weighed to determine the mass of activator that was dissolved in the aliquot. The concentration of the saturated solution is presented in millimoles of activator per liter of solution (mM).
# Procedure for Activators that Form Emulsions.
# A saturated solution of the activator was prepared by slowly adding the solvent to a pre-weighed amount of the activator. The final volume was determined as the minimum amount of solvent required to convert the emulsion into a homogeneous solution. The concentration of the saturated solution is presented in millimoles of activator per liter of solution (mM). Alternatively, an emulsion of the activator was prepared by adding the solvent to an excess amount of activator. The resulting emulsion was separated from the undissolved solids by decanting the emulsion into a tared vial. Solvent was then added dropwise until the emulsion became homogeneous. The mass of the final solution was measured and then the solvent was evaporated to dryness to obtain the mass of the activator. The concentration of the saturated solution is presented in millimoles of activator per liter of solution (mM).
# [2] = as above; assay type: physicochemical; settings: methylcyclohexane
# [3] = RUN B: ethylene-octene polymerization in parallel pressure reactor, activator diluent toluene or methylcyclohexane; settings: ethylene-octene copolymerization; for activity: Cat 1 (MCN-1); for activity, molecular weight and co-monomer incorporation with methyl cyclohexane versus toluene as activator diluent: FIGS. 2-4
# Method: RUN B: Polymerization in Parallel Pressure Reactor.
# A series of ethylene-octene polymerizations were performed in the parallel pressure reactor according to the procedure described above. […] In a typical experiment an automated syringe was used to introduce into the reactor the following reagents, if utilized, in the following order: isohexane (0.35 mL), an isohexane solution of TNOAL scavenger (0.005 M, 60 μL), additional isohexane (0.35 mL), a toluene solution of the respective polymerization catalyst (150 μL, 0.4 mM, 20 nm [cat]/100 μL [toluene]), additional isohexane (0.35 mL), a toluene or methylcyclohexane solution of the respective activator (150 μL, 0.4 mM, (20 nm [act]/100 μL[ diluent])), then additional isohexane so that the total solvent volume for each run was 5 mL. Catalyst and activator were used in a 1:1 ratio. Each reaction was performed at a specified temperature range between 50 and 120° C., typically 95° C., while applying about 100 psig of ethylene (monomer) gas. Each reaction was allowed to run for about 1 hour (˜3600 seconds) or until approximately 20 psig of ethylene gas uptake was observed, at which point the reactions were quenched with air (˜300 psig). When sufficient polymer yield was attained (e.g., at least ˜10 mg), the polyethylene product was analyzed by Rapid GPC, described below.
# In a typical experiment, the anilinium borate activators were combined with toluene or methylcyclohexane as diluent and introduced to the parallel, pressure reactor via syringe. By this mechanism of activator introduction, only well dissolved activators could be delivered to the reactor providing a means to discriminate between the polymerization performance of long chain soluble anilinium borates vs. conventional anilinium borates. Following addition of activator, the catalyst Cat 1 was introduced, via syringe as well-dissolved toluene solution and the polymerization was conducted per the methodology described above.
# [4] = Propylene homopolymerization in parallel pressure reactor, MCN-1 with ammonium borate activators; settings: propylene, MCN-1 = 20 nmol, activator = 20 nmol, isohexane, TNOAL 500 nmol
# Source text: Polymerization in Parallel Pressure Reactor
# Solvents, polymerization-grade toluene, and isohexane were supplied by ExxonMobil Chemical Company and purified by passing through a series of columns: two 500 cc Oxyclear cylinders in series from Labclear (Oakland, Calif.), followed by two 500 cc columns in series packed with dried 3 Å mole sieves (8-12 mesh; Aldrich Chemical Company), and two 500 cc columns in series packed with dried 5 Å mole sieves (8-12 mesh; Aldrich Chemical Company). 1-octene (C8) and 1-hexene (C6) (98%, Aldrich Chemical Company) were dried by stirring over NaK overnight followed by filtration through basic alumina (Aldrich Chemical Company, Brockman Basic 1).
# Solutions of the metal complexes and activators were prepared in a drybox using toluene or methylcyclohexane. Concentrations were typically 0.2 mmol/L. Tri-n-octylaluminum (TNOAL, neat, AkzoNobel) was typically used as a scavenger. Concentration of the TNOAL solution in toluene ranged from 0.5 to 2.0 mmol/L.
# Polymerizations were carried out in a parallel pressure reactor, as generally described in U.S. Pat. Nos. 6,306,658; 6,455,316; 6,489,168; WO 00/09255; and Murphy, V. et al. (2003) “A Fully Integrated High-Throughput Screening Methodology for the Discovery of New Polyolefin Catalysts: Discovery of a New Class of High Temperature Single-Site Group (IV) Copolymerization Catalysts,” J. Am. Chem. Soc., v. 125, pp. 4306-4317, each of which is fully incorporated herein by reference. […] Although the specific quantities, temperatures, solvents, reactants, reactant ratios, pressures, and other variables are frequently changed from one polymerization run to the next, the following describes a typical polymerization performed in a parallel pressure reactor.
# Catalyst systems dissolved in solution were used in the polymerization examples below, unless specified otherwise.
# RUN A: Propylene Homopolymerization (PP).
# The reactor was prepared as described above and purged with propylene. For the examples in Table 2, the catalyst and activator solutions were prepared in toluene. […] Isohexane was then injected into each vessel at room temperature followed by a predetermined amount of propylene gas. The reactor was heated to the set temperature while stirring at 800 rpm, and the scavenger, activator and catalyst solutions were injected sequentially to each vessel. The polymerization was allowed to proceed as described previously.
# A series of propylene polymerizations were performed in parallel pressure reactors (PPRs) developed by Symyx Technologies, Inc. In these polymerizations, the metallocene rac-dimethylsilyl-bis(indenyl)hafnium dimethyl (MCN-1) was used along with several different ammonium borate activators. Polymerizations were performed at 85° C. and 100° C.
# Propylene homopolymerization (PP).
# A series of propylene polymerizations were performed in the parallel pressure reactor similar to the procedure described above. In these studies rac-dimethylsilyl-bis(indenyl)hafnium dimethyl (MCN-1) was used along with ammonium borate activators.
# [5] = activator diluent MeCy (methylcyclohexane)
molecule,measurement,setting,value
"CCCCCCCCCC[NH+](CCCCCCCCCC)c1ccc(CCCC)cc1.Fc1c(F)c(F)c2c(F)c([B-](c3c(F)c(F)c4c(F)c(F)c(F)c(F)c4c3F)(c3c(F)c(F)c4c(F)c(F)c(F)c(F)c4c3F)c3c(F)c(F)c4c(F)c(F)c(F)c(F)c4c3F)c(F)c(F)c2c1F [DDBAH-BF28, 4-butyl-N,N-didecylbenzenaminium-BF28]",Solubility limit in i-hexane (mM at 25° C.),[1],2.2 mM
same,Solubility limit in i-hexane (wt % at 25° C.),[1],0.47 wt %
same,Solubility limit in MeCy (mM at 25° C.),[1],17 mM
same,Solubility limit in MeCy (wt % at 25° C.),[2],3.3 wt %
"CCCCCCCCCCCCCCCCCC[NH+](CCCCCCCCCCCCCCCCCC)c1c(C)cc(C)cc1C.Fc1c(F)c(F)c2c(F)c([B-](c3c(F)c(F)c4c(F)c(F)c(F)c(F)c4c3F)(c3c(F)c(F)c4c(F)c(F)c(F)c(F)c4c3F)c3c(F)c(F)c4c(F)c(F)c(F)c(F)c4c3F)c(F)c(F)c2c1F [DOdMH-BF28, 2,4,6-trimethyl-N,N-dioctadecylbenzenaminium-BF28]",Solubility limit in i-hexane (mM at 25° C.),[1],7.6 mM
same,Solubility limit in i-hexane (wt % at 25° C.),[1],0.70 wt %
same,Solubility limit in MeCy (mM at 25° C.),[1],>180 mM
same,Solubility limit in MeCy (wt % at 25° C.),[2],>42 wt %
"N,N-dimethyl anilinium tetrakis(perfluorobiphenyl) [C3, reference compound]",quantity of polymer obtained with methylcyclohexane as diluent,"[3]; Cat 1, activator in methylcyclohexane",insufficient for analysis
same,activity,[3]; activator diluent Toluene,692.3 kg/mmol/h and 711.1 kg/mmol/h and 841.8 kg/mmol/h and 803.7 kg/mmol/h
"CCCCCCc1ccc([NH+](C)C)cc1.Fc1c(F)c(F)c([B-](c2c(F)c(F)c(F)c(F)c2F)(c2c(F)c(F)c(F)c(F)c2F)c2c(F)c(F)c(F)c(F)c2F)c(F)c1F [Hex-DMAH-BF20, 4-hexyl-N,N-dimethylanilinium-BF20]",activity,"[4]; 85 °C, 135 psi",150 kg/mmol/h and 163 kg/mmol/h and 192 kg/mmol/h
same,activity,"[4]; 100 °C, 150 psi",47 kg/mmol/h and 81 kg/mmol/h and 75 kg/mmol/h
CCCCCCCCCCCCCCCCCC[NH+](C)c1ccc(CCCC)cc1.Fc1c(F)c(F)c2c(F)c([B-](c3c(F)c(F)c4c(F)c(F)c(F)c(F)c4c3F)(c3c(F)c(F)c4c(F)c(F)c(F)c(F)c4c3F)c3c(F)c(F)c4c(F)c(F)c(F)c(F)c4c3F)c(F)c(F)c2c1F [LCSA 1],"activity, molecular weight and co-monomer incorporation with methyl cyclohexane versus toluene as activator diluent",[3]; Cat 1,remain approximately the same
same,activity,[3]; [5],332.7 kg/mmol/h and 377.7 kg/mmol/h and 393.6 kg/mmol/h and 367.2 kg/mmol/h
same,activity,[3]; activator diluent Toluene,413.4 kg/mmol/h and 510.6 kg/mmol/h and 426.4 kg/mmol/h and 452.7 kg/mmol/h
CCCCCCCCCCCCCCCCCCc1ccc([NH+](CCCCCCCCCCCCCCCCCC)CCCCCCCCCCCCCCCCCC)cc1.Fc1c(F)c(F)c2c(F)c([B-](c3c(F)c(F)c4c(F)c(F)c(F)c(F)c4c3F)(c3c(F)c(F)c4c(F)c(F)c(F)c(F)c4c3F)c3c(F)c(F)c4c(F)c(F)c(F)c(F)c4c3F)c(F)c(F)c2c1F [LCSA 3],"activity, molecular weight and co-monomer incorporation with methyl cyclohexane versus toluene as activator diluent",[3]; Cat 1,remain approximately the same
same,activity,[3]; [5],280.6 kg/mmol/h and 257.6 kg/mmol/h and 334.9 kg/mmol/h and 360.9 kg/mmol/h
same,activity,[3]; activator diluent Toluene,290.6 kg/mmol/h and 278.0 kg/mmol/h and 289.7 kg/mmol/h and 278.3 kg/mmol/h
CCCCCCCCCCCCCCCCCCc1ccc([NH+](C)CCCCCCCCCCCCCCCCCC)cc1.Fc1c(F)c(F)c2c(F)c([B-](c3c(F)c(F)c4c(F)c(F)c(F)c(F)c4c3F)(c3c(F)c(F)c4c(F)c(F)c(F)c(F)c4c3F)c3c(F)c(F)c4c(F)c(F)c(F)c(F)c4c3F)c(F)c(F)c2c1F [LCSA 2],"activity, molecular weight and co-monomer incorporation with methyl cyclohexane versus toluene as activator diluent",[3]; Cat 1,remain approximately the same
same,activity,[3]; [5],451.4 kg/mmol/h and 388.5 kg/mmol/h and 412.4 kg/mmol/h and 455.5 kg/mmol/h
same,activity,[3]; activator diluent Toluene,477.7 kg/mmol/h and 430.3 kg/mmol/h and 405.6 kg/mmol/h and 423.2 kg/mmol/h
